# In patent US20250000847A1, “TREATMENT OF NEURODEGENERATIVE DISEASES WITH HDAC INHIBITORS” (CASE WESTERN RESERVE UNIVERSITY, priority 2021, published 2025):
# Experiments:
# [1] = system: retinal ganglion cells (RGCs); assay: Optic nerve crush model of neurodegeneration; type: in vivo, mouse; settings: 10 mg/kg daily i.p. for 14 days after optic nerve crush
# Source text: The optic nerve of adult mice was surgically accessed and crushed. […] 14 days after optic nerve crush surgery, retina were harvested and stained for the RGC marker BRN3A, and the pan neuronal maker BIII-tubulin.
# Gbp2 and Psmb8 = assay: Gene expression in cultured human astrocytes (qPCR); type: cell-based
# Experimental: Human induced pluripotent stem cells (iPSCs) were cultured to differentiate into astrocytes as described by Perriot et al. (2018). In short, iPSC colonies were placed in neural induction media for 10 days until neural rosettes could be picked, dissociated, and plated in a glial expansion medium. These cells were allowed to proliferate and become a homogenous population of glial progenitor cells (GPCs) over eight passages on poly-L-ornithine and laminin-coated plates. These GPCs were then passaged onto a Matrigel-coated plate to culture in an astrocyte induction media for two weeks, which was followed by culturing for another four weeks in an astrocyte maturation medium.
# Cells were lysed in TRIzol and total RNA was extracted with phenol-chloroform followed by spin columns from the RNEasy Mini Kit (74104, QIAGEN). RNA quality and quantity was determined using a NanoDrop spectrophotometer. The RNA was then reverse transcribed using the iScript cDNA synthesis kit (1708891, Bio-Rad) according to the manufacturer's instructions. […]
# [2] = system: GBP2+ reactive astrocytes; assay: Primary high-throughput screen, formation of GBP2+ damaging reactive astrocytes; type: cell-based, mouse; settings: 2 μM, TNFα, IL-1α, C1q, 24 hours
# Experimental: Specifically, resting astrocytes were first thawed and plated onto 384-well plates at a density of about 500 cells/mm^2. A Perkin Elmer Janus G3 Varispan Automated Workstation was then used to treat cells with candidate small-molecules from a library of 3115 bioactive small-molecules, with one type of small molecule per well, at a concentration of about 2 μM in 384-well plates, followed one hour later by exposing the pre-treated astrocytes with such reactive astrocyte driving factors as IL-1α (3 ng/mL, Sigma #I3901), C1q (400 ng/mL, MyBioSource #MBS143105), and TNFα (30 ng/mL, R&D Systems #210-TA-020). […]
# The cells were then imaged using the PerkinElmer Operetta CLS High-Content Analysis System. Images were analyzed using automated PerkinElmer Columbus Image Analysis Software.
# Hits were then determined as those compounds that decreased the number of GBP2^+ reactive astrocytes by greater than 80% compared to reactive astrocytes plus DMSO vehicle control wells. […]
# For screening, all liquid handling was performed using a BioTek EL406 Washer Dispenser. […] Images were analyzed using automated PerkinElmer Columbus Image Analysis Software. For analysis, toxic chemicals were first removed; a chemical was considered toxic if it decreased the counted number of live cells in the well by greater than 30% compared to reactive astrocytes plus DMSO vehicle control wells. […]
# other HDAC = settings: at up to 15 μM; cited from earlier work
# [3] = system: genes associated with damaging and beneficial reactive astrocytes; assay: Bulk RNAseq of reactive astrocytes; type: cell-based, mouse
# Source text: Total RNA was extracted from resting and reactive astrocytes using the same procedure as described for qPCR and sent to Novogene for mRNA Sequencing.
# For gene expression analysis, reads were mapped to the mm10 genome using kallisto 0.46.1 (Bray et al., Nat Biotechnol 34, 525-527, doi:10.1038/nbt.3519 (2016)). Transcripts were summarized to the gene level with tximport (Soneson et al., F1OORes 4, 1521, doi:10.12688/fl000research.7563.2 (2015). Normalized expression and differentiation gene expression was then generated using DESEQ2 (Love et al., Genome Biol 15, 550, doi:10.1186/s13059-014-0550-8 (2014)).
# spinal cord LPC lesion = assay: Lysolecithin (LPC) injection model of focal tissue damage; type: in vivo, mouse
# Experimental: This was based on a toxin-based model of CNS tissue damage, where lysolecithin (lysophosphatidylcholine (LPC)) is injected into the dorsal column of the spinal cord leading to cell death, demyelination, and axonal damage at 4 days post lesion (dpl).
# Focal tissue damage in the spinal cord was induced by the injection of 1% LPC solution. 10-12 week old C57BL/6 female mice were anesthetized using isoflurane and a T10 laminectomy was performed. 1 μL of 1% LPC was infused into the dorsal column at a rate of […]. The animals were euthanized at day twelve after the laminectomy (n=6-9 per group). […] Mice were then processed for immunohistochemistry or electron microscopy.
# Samples were processed as previously described (Najm et al., Nat Methods 8, 957-962, doi:10.1038/nmeth.1712 (2011)). Briefly, Mice were perfused with 4% PFA, 2% glutaraldehyde, and 0.1 M sodium cacodylate. Spinal cords were extracted and samples were osmicated, stained en bloc with uranyl acetate and embedded in EMbed 812, an Epon-812 substitute (EMS). Thin sections were cut, carbon-coated and imaged either on JEOL JEM-1200-EX electron microscope or a T12 electron microscope (FEI).
# [4] = 10 mg/kg daily, lesion at 12 dpl
structure (smiles),measurement,setting,value
Nc1cc(F)ccc1NC(=O)/C=C/c1cnn(C/C=C/c2ccccc2)c1 [RGFP966],protection of retinal ganglion cells (RGCs) from neurodegeneration,[1],protects
same,"expression of genes associated with DRAs, Gbp2 and Psmb8",Gbp2 and Psmb8,decreased expression
same,inhibition of the formation of proinflammatory toxic (reactive) astrocytes,[2],robustly inhibit
same,inhibition of other HDAC isozymes,other HDAC,no inhibition
same,expression of genes associated with beneficial reactive astrocytes (BRA),[3],increasing expression
same,expression of genes associated with damaging reactive astrocytes (DRA),[3],decreased expression
same,tissue repair,"spinal cord LPC lesion; 10 mg/kg daily from −1 dpl, at 12 dpl, compared to vehicle-treated LPC mice",accelerated tissue repair
same,axons/mm^2,spinal cord LPC lesion; [4],increased
same,percentage of axons remyelinated,spinal cord LPC lesion; [4],increased
same,total axons in lesions,spinal cord LPC lesion; [4],increased
same,total remyelinated,spinal cord LPC lesion; [4],increased
